Experimental data as given in ChEMBL document CHEMBL3244338, “Antineoplastic agents. Structure-activity relationship study of bis(substituted aminoalkylamino)anthraquinones” (J Med Chem, 1978).
Calls of active or inactive are those of the source. The calls are words filed in the database; no cut-off is given here.

Legend:
P388 [1] = assay: Antitumor activity against mouse P388 cells allografted in BDF1 mouse assessed as mouse survival at 12.5 mg/kg administered 24 hrs post challenge relative to control; assay type: functional, organism-based; design: dose 12.5 mg/kg
Mus musculus [2] = assay: Toxicity in mouse P388 cells allografted BDF1 mouse assessed as body weight difference at 12.5 mg/kg administered 24 hrs post challenge relative to control; assay type: organism-based; design: dose 12.5 mg/kg; details: in vivo
P388 [3] = assay: Antitumor activity against mouse P388 cells allografted in BDF1 mouse assessed as increase in survival time at 12.5 mg/kg administered 24 hrs post challenge relative to control; assay type: functional
Mus musculus [4] = assay: Toxicity in mouse P388 cells allografted BDF1 mouse assessed as body weight difference at 25 mg/kg administered 24 hrs post challenge relative to control; assay type: organism-based; design: dose 25 mg/kg; details: in vivo
P388 [5] = assay: Antitumor activity against mouse P388 cells allografted in BDF1 mouse assessed as increase in survival time at 50 mg/kg administered 24 hrs post challenge relative to control; assay type: functional
Mus musculus [6] = assay: Toxicity in mouse P388 cells allografted BDF1 mouse assessed as body weight difference at 100 mg/kg administered 24 hrs post challenge relative to control; assay type: organism-based; design: dose 100 mg/kg; details: in vivo
P388 [7] = assay: Antitumor activity against mouse P388 cells allografted in BDF1 mouse assessed as increase in survival time at 100 mg/kg administered 24 hrs post challenge relative to control; assay type: functional
Mus musculus [8] = assay: Toxicity in mouse P388 cells allografted BDF1 mouse assessed as body weight difference at 50 mg/kg administered 24 hrs post challenge relative to control; assay type: organism-based; design: dose 50 mg/kg; details: in vivo
P388 [9] = assay: Antitumor activity against mouse P388 cells allografted in BDF1 mouse assessed as increase in survival time at 25 mg/kg administered 24 hrs post challenge relative to control; assay type: functional
P388 [10] = assay: Antitumor activity against mouse P388 cells allografted in BDF1 mouse assessed as mouse survival at 25 mg/kg administered 24 hrs post challenge relative to control; assay type: functional, organism-based; design: dose 25 mg/kg
P388 [11] = assay: Antitumor activity against mouse P388 cells allografted in BDF1 mouse assessed as mouse survival at 0.78 mg/kg administered 24 hrs post challenge relative to control; assay type: functional, organism-based; design: dose 0.78 mg/kg
P388 [12] = assay: Antitumor activity against mouse P388 cells allografted in BDF1 mouse assessed as increase in survival time at 3.13 mg/kg administered 24 hrs post challenge relative to control; assay type: functional
P388 [13] = assay: Antitumor activity against mouse P388 cells allografted in BDF1 mouse assessed as mouse survival at 6.25 mg/kg administered 24 hrs post challenge relative to control; assay type: functional, organism-based; design: dose 6.25 mg/kg
Mus musculus [14] = assay: Toxicity in mouse P388 cells allografted BDF1 mouse assessed as body weight difference at 3.13 mg/kg administered 24 hrs post challenge relative to control; assay type: organism-based; design: dose 3.13 mg/kg; details: in vivo
P388 [15] = assay: Antitumor activity against mouse P388 cells allografted in BDF1 mouse assessed as increase in survival time at 0.78 mg/kg administered 24 hrs post challenge relative to control; assay type: functional
P388 [16] = assay: Antitumor activity against mouse P388 cells allografted in BDF1 mouse assessed as mouse survival at 1.56 mg/kg administered 24 hrs post challenge relative to control; assay type: functional, organism-based; design: dose 1.56 mg/kg
Mus musculus [17] = assay: Toxicity in mouse P388 cells allografted BDF1 mouse assessed as body weight difference at 1.56 mg/kg administered 24 hrs post challenge relative to control; assay type: organism-based; design: dose 1.56 mg/kg; details: in vivo
P388 [18] = assay: Antitumor activity against mouse P388 cells allografted in BDF1 mouse assessed as increase in survival time at 6.25 mg/kg administered 24 hrs post challenge relative to control; assay type: functional
B16 [19] = assay: Antitumor activity against mouse B16 cells allografted in BDF1 mouse assessed as increase in survival time at 16 mg/kg administered 24 hrs post challenge relative to control; assay type: functional
Mus musculus [20] = assay: Toxicity in mouse P388 cells allografted BDF1 mouse assessed as body weight difference at 0.78 mg/kg administered 24 hrs post challenge relative to control; assay type: organism-based; design: dose 0.78 mg/kg; details: in vivo
P388 [21] = assay: Antitumor activity against mouse P388 cells allografted in BDF1 mouse assessed as increase in survival time at 1.56 mg/kg administered 24 hrs post challenge relative to control; assay type: functional
Mus musculus [22] = assay: Toxicity in mouse P388 cells allografted BDF1 mouse assessed as body weight difference at 6.25 mg/kg administered 24 hrs post challenge relative to control; assay type: organism-based; design: dose 6.25 mg/kg; details: in vivo
P388 [23] = assay: Antitumor activity against mouse P388 cells allografted in BDF1 mouse assessed as mouse survival at 3.13 mg/kg administered 24 hrs post challenge relative to control; assay type: functional, organism-based; design: dose 3.13 mg/kg
B16 [24] = assay: Antitumor activity against mouse B16 cells allografted in BDF1 mouse assessed as increase in survival time at 8 mg/kg administered 24 hrs post challenge relative to control; assay type: functional
B16 [25] = assay: Antitumor activity against mouse B16 cells allografted in BDF1 mouse assessed as increase in survival time at 4 mg/kg administered 24 hrs post challenge relative to control; assay type: functional
P388 [26] = assay: Antitumor activity against mouse P388 cells allografted in BDF1 mouse assessed as mouse survival at 50 mg/kg administered 24 hrs post challenge relative to control; assay type: functional, organism-based; design: dose 50 mg/kg
P388 [27] = assay: Antitumor activity against mouse P388 cells allografted in BDF1 mouse assessed as mouse survival at 100 mg/kg administered 24 hrs post challenge relative to control; assay type: functional, organism-based; design: dose 100 mg/kg
P388 [28] = assay: Antitumor activity against mouse P388 cells allografted in BDF1 mouse assessed as mouse survival at 400 mg/kg administered 24 hrs post challenge relative to control; assay type: functional, organism-based; design: dose 400 mg/kg
P388 [29] = assay: Antitumor activity against mouse P388 cells allografted in BDF1 mouse assessed as increase in survival time at 400 mg/kg administered 24 hrs post challenge relative to control; assay type: functional
P388 [30] = assay: Antitumor activity against mouse P388 cells allografted in BDF1 mouse assessed as increase in survival time at 200 mg/kg administered 24 hrs post challenge relative to control; assay type: functional
Mus musculus [31] = assay: Toxicity in mouse P388 cells allografted BDF1 mouse assessed as body weight difference at 200 mg/kg administered 24 hrs post challenge relative to control; assay type: organism-based; design: dose 200 mg/kg; details: in vivo
Mus musculus [32] = assay: Toxicity in mouse P388 cells allografted BDF1 mouse assessed as body weight difference at 400 mg/kg administered 24 hrs post challenge relative to control; assay type: organism-based; design: dose 400 mg/kg; details: in vivo
P388 [33] = assay: Antitumor activity against mouse P388 cells allografted in BDF1 mouse assessed as mouse survival at 200 mg/kg administered 24 hrs post challenge relative to control; assay type: functional, organism-based; design: dose 200 mg/kg
P388 [34] = assay: Antitumor activity against mouse P388 cells allografted in BDF1 mouse assessed as increase in survival time at 8 mg/kg administered 24 hrs post challenge relative to control; assay type: functional
P388 [35] = assay: Antitumor activity against mouse P388 cells allografted in BDF1 mouse assessed as mouse survival at 16 mg/kg administered 24 hrs post challenge relative to control; assay type: functional, organism-based; design: dose 16 mg/kg
P388 [36] = assay: Antitumor activity against mouse P388 cells allografted in BDF1 mouse assessed as increase in survival time at 16 mg/kg administered 24 hrs post challenge relative to control; assay type: functional
P388 [37] = assay: Antitumor activity against mouse P388 cells allografted in BDF1 mouse assessed as mouse survival at 8 mg/kg administered 24 hrs post challenge relative to control; assay type: functional, organism-based; design: dose 8 mg/kg
L1210 [38] = assay: Antitumor activity against mouse L1210 cells allografted in BDF1 mouse assessed as increase in survival time at 12.5 mg/kg administered 24 hrs post challenge relative to control; assay type: functional
Mus musculus [39] = assay: Toxicity in mouse P388 cells allografted BDF1 mouse assessed as body weight difference at 16 mg/kg administered 24 hrs post challenge relative to control; assay type: organism-based; design: dose 16 mg/kg; details: in vivo
P388 [40] = assay: Antitumor activity against mouse P388 cells allografted in BDF1 mouse assessed as mouse survival at 32 mg/kg administered 24 hrs post challenge relative to control; assay type: functional, organism-based; design: dose 32 mg/kg
L1210 [41] = assay: Antitumor activity against mouse L1210 cells allografted in BDF1 mouse assessed as increase in survival time at 6.25 mg/kg administered 24 hrs post challenge relative to control; assay type: functional
Mus musculus [42] = assay: Toxicity in mouse P388 cells allografted BDF1 mouse assessed as body weight difference at 32 mg/kg administered 24 hrs post challenge relative to control; assay type: organism-based; design: dose 32 mg/kg; details: in vivo
P388 [43] = assay: Antitumor activity against mouse P388 cells allografted in BDF1 mouse assessed as increase in survival time at 4 mg/kg administered 24 hrs post challenge relative to control; assay type: functional
P388 [44] = assay: Antitumor activity against mouse P388 cells allografted in BDF1 mouse assessed as mouse survival at 4 mg/kg administered 24 hrs post challenge relative to control; assay type: functional, organism-based; design: dose 4 mg/kg
Mus musculus [45] = assay: Toxicity in mouse P388 cells allografted BDF1 mouse assessed as body weight difference at 4 mg/kg administered 24 hrs post challenge relative to control; assay type: organism-based; design: dose 4 mg/kg; details: in vivo
L1210 [46] = assay: Antitumor activity against mouse L1210 cells allografted in BDF1 mouse assessed as increase in survival time at 25 mg/kg administered 24 hrs post challenge relative to control; assay type: functional
Mus musculus [47] = assay: Toxicity in mouse P388 cells allografted BDF1 mouse assessed as body weight difference at 8 mg/kg administered 24 hrs post challenge relative to control; assay type: organism-based; design: dose 8 mg/kg; details: in vivo
P388 [48] = assay: Antitumor activity against mouse P388 cells allografted in BDF1 mouse assessed as increase in survival time at 32 mg/kg administered 24 hrs post challenge relative to control; assay type: functional

SMILES: CNCCNc1ccc(NCCNC)c2c1C(=O)c1ccccc1C2=O
- Activity (P388 [1]): Active
- Activity (Mus musculus [2]): -1.9 g
- T/C (P388 [3]): 200%

SMILES: O=C1c2ccccc2C(=O)c2c3c(cc(NCCNCCO)c21)N(CCO)CCN3
- Activity (Mus musculus [4]): -3.2 g
- T/C (P388 [5]): 163%
- Activity (Mus musculus [6]): -3.8 g
- T/C (P388 [7]): 101%
- Activity (Mus musculus [8]): -3.5 g
- T/C (P388 [9]): 155%
- Activity (P388 [10]): Active

SMILES: NCCNc1ccc(NCCN)c2c1C(=O)c1ccccc1C2=O
- Activity (Mus musculus [4]): -2.6 g
- Activity (P388 [11]): Active
- T/C (P388 [12]): 107%
- Activity (P388 [13]): Active
- Activity (Mus musculus [14]): -0.9 g
- T/C (P388 [15]): 150%
- Activity (P388 [16]): Active
- Activity (P388 [1]): Active
- Activity (Mus musculus [17]): -1.6 g
- T/C (P388 [18]): 159%
- T/C (B16 [19]): 281%
- Activity (Mus musculus [20]): -1.3 g
- Activity (Mus musculus [2]): -1.1 g
- T/C (P388 [3]): 174%
- T/C (P388 [21]): 137%
- Activity (Mus musculus [22]): -1.1 g
- Activity (P388 [23]): Active
- T/C (P388 [9]): 215%
- Activity (P388 [10]): Active
- T/C (B16 [24]): 280%
- T/C (B16 [25]): 280%

SMILES: O=C1c2ccccc2C(=O)c2c(NCCN3CCNCC3)ccc(NCCN3CCNCC3)c21
- Activity (Mus musculus [4]): -1 g
- Activity (P388 [13]): Active
- T/C (P388 [5]): 134%
- Activity (P388 [1]): Active
- T/C (P388 [18]): 125%
- Activity (Mus musculus [2]): -1.1 g
- T/C (P388 [3]): 117%
- Activity (Mus musculus [8]): -2.7 g
- Activity (Mus musculus [22]): -0.4 g
- T/C (P388 [9]): 137%
- Activity (P388 [10]): Active

SMILES: CCCNCCNc1ccc(NCCNCCC)c2c1C(=O)c1ccccc1C2=O
- Activity (P388 [26]): Active
- Activity (Mus musculus [4]): -0.8 g
- Activity (P388 [27]): Active
- T/C (P388 [5]): 125%
- Activity (Mus musculus [6]): -2.6 g
- T/C (P388 [7]): 124%
- Activity (Mus musculus [8]): -1.7 g
- T/C (P388 [9]): 118%
- Activity (P388 [10]): Active

SMILES: COc1ccc(CCNc2ccc(NCCc3ccc(OC)c(OC)c3)c3c2C(=O)c2ccccc2C3=O)cc1OC
- Activity (P388 [27]): Active
- Activity (P388 [28]): Active
- T/C (P388 [29]): 91%
- T/C (P388 [30]): 101%
- Activity (Mus musculus [6]): -1.7 g
- T/C (P388 [7]): 86%
- Activity (Mus musculus [31]): -3.2 g
- Activity (Mus musculus [32]): -2.9 g
- Activity (P388 [33]): Active

SMILES: O=C1c2ccccc2C(=O)c2c(NCCNCCO)ccc(NCCNCCO)c21 [AMETANTRONE]
- T/C (P388 [34]): 276%
- Activity (P388 [35]): Active
- T/C (P388 [36]): 275%
- Activity (P388 [37]): Active
- T/C (L1210 [38]): 227%
- Activity (Mus musculus [39]): -3.9 g
- Activity (P388 [40]): Active
- T/C (L1210 [41]): 156%
- Activity (Mus musculus [42]): -5.9 g
- T/C (P388 [43]): 275%
- Activity (P388 [44]): Active
- Activity (Mus musculus [45]): 0 g
- T/C (L1210 [46]): 272%
- Activity (Mus musculus [47]): -2 g
- T/C (P388 [48]): 81%
